Reference: US20080200693A1, “Derivatives of Aryl (or Heteroaryl) Azolylcarbinols (in Particular Cizolirtin Citrate) for the Treatment of Opioid Addiction” (LABORATORIOS DEL DR. ESTEVE S.A., priority 2004, published 2008)

Test system: male Swiss albino mice
Assay: Determination of withdrawal symptoms (naloxone-induced jumps and shakes in opioid-dependent mice)
Assay type: in vivo
Method: Pharmacodyn, 1971, 190, pages 213-218 in male Swiss albino mice (weight 20-25 g, Harlan Iberica, S. Feliu de Codinas, Barcelona, Spain).
Opioid dependency is developed in the mice by intraperitoneal administration of the opioid in a suitable dose known to those skilled in the art, e.g. 5 mg/kg/day for 4 consecutive days for morphine. Withdrawal symptoms are then induced by the intravenous administration of a suitable opioid antagonist in a dose known to those skilled in the art, for example, 2 mg/kg naloxone in case of morphine, 30 minutes after the administration of the final dose of the opioid is completed.
In the 30 minute period following the naloxone administration the mice show typical withdrawal symptoms, namely jumps and shakes (of the wet dog shake type), which are counted and registered.
The active substance is administered in combination with the opioid to the mice for 4 consecutive days. After the administration of 2 mg/kg naloxone 30 minutes after the administration of the final dose of the active substance in combination with the opioid has been completed, the mice are closely watched for withdrawal symptoms, namely jumps and shakes (of the wet dog shake type), which are then counted and registered.
The influence of the active substance in combination with an opioid on withdrawal symptoms has been determined as described above.

| Structure (SMILES) | withdrawal symptoms usually associated with the administration of opioids (morphine) (co-administration with morphine, administered amount of the opioid not reduced, mice) | Number of Jumps (morphine 5 mg/kg/day s.c. over 4 days, 2 mg/kg naloxone 30 min after final dose, counted in the following 30 minute period) | Number of shakes (morphine 5 mg/kg/day s.c. over 4 days, 2 mg/kg naloxone 30 min after final dose, wet dog shake type, counted in the following 30 minute period) |
| --- | --- | --- | --- |
| CN(C)CCOC(c1ccccc1)c1ccnn1C.O=C(O)CC(O)(CC(=O)O)C(=O)O (racemic) [Example 1, (±)-5-{α-[2-(dimethylamino)ethoxy]benzyl}-1-methyl-1H-pirazole citrate] | significantly reduced |  |  |
| CN1CC[C@]23c4c5ccc(O)c4O[C@H]2[C@@H](O)C=C[C@H]3[C@H]1C5 [Morphine] |  | 6.6 | 16.3 |
